Source: PMC9532703, “A novel small molecule RK-019 inhibits FGFR2-amplification gastric cancer cell proliferation and induces apoptosis in vitro and in vivo” (Frontiers in Pharmacology, 2022)

Assays:
Test in all cases: Kinase selectivity panel
Type in all cases: biochemical
CDK5/p35(h) = target: T1, CDK5/p35(h) (Homo sapiens, UniProt Q00535); settings: read-out: Inhibition(%) @ 1 µM RK-019
T1 construct: purchased Eurofins Discovery Services (KinaseProfiler)
Outline: (§1)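 Inhibition ratio was measured at 1 µM test compound in an ATP-site competition binding format across 422 recombinant human kinases.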

ZAP-70(h) = target: T2, ZAP-70(h) (Homo sapiens, UniProt P43403); settings: read-out: Inhibition(%) @ 1 µM RK-019
T2 construct: purchased Eurofins Discovery Services (KinaseProfiler)
Outline: as §1

EphB2(h) = target: T3, EphB2(h) (Homo sapiens, UniProt P29323); settings: read-out: Inhibition(%) @ 1 µM RK-019
T3 construct: purchased Eurofins Discovery Services (KinaseProfiler)
Outline: as §1

Lyn(m) = target: T4, Lyn(m) (Mus musculus, UniProt P25911); settings: read-out: Inhibition(%) @ 1 µM RK-019
T4 construct: purchased Eurofins Discovery Services (KinaseProfiler)

CDK13/cyclinK(h) = target: T5, CDK13/cyclinK(h) (Homo sapiens, UniProt Q14004); settings: read-out: Inhibition(%) @ 1 µM RK-019
T5 construct: purchased Eurofins Discovery Services (KinaseProfiler)
Outline: as §1

Rsk4(h) = target: T6, Rsk4(h) (Homo sapiens, UniProt Q9UK32); settings: read-out: Inhibition(%) @ 1 µM RK-019
T6 construct: purchased Eurofins Discovery Services (KinaseProfiler)
T6 sequence (Q9UK32 whole entry): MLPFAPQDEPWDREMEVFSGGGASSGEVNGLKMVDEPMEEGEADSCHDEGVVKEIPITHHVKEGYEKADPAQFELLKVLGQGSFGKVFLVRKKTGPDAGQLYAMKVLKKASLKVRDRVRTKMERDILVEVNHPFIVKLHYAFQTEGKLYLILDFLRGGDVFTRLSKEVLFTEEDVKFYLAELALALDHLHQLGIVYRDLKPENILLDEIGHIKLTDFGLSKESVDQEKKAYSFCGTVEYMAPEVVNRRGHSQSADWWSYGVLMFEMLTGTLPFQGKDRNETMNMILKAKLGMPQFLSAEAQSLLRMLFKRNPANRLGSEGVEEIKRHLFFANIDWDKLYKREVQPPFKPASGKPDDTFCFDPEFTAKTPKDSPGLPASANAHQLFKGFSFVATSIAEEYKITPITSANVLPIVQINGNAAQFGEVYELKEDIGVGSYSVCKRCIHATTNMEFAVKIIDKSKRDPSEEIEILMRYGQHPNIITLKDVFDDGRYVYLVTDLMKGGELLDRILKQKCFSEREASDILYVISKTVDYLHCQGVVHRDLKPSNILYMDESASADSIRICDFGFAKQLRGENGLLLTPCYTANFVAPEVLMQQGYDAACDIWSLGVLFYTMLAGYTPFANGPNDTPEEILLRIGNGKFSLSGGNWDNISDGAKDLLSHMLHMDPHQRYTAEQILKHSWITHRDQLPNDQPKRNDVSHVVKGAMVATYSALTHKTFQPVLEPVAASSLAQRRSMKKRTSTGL
Outline: as §1

SGK2(h) = target: T7, SGK2(h) (Homo sapiens, UniProt Q9HBY8); settings: read-out: Inhibition(%) @ 1 µM RK-019
T7 construct: purchased Eurofins Discovery Services (KinaseProfiler)
Outline: as §1

CDK12/cyclinK(h) = target: T8, CDK12/cyclinK(h) (Homo sapiens, UniProt Q9NYV4); settings: read-out: Inhibition(%) @ 1 µM RK-019
T8 construct: purchased Eurofins Discovery Services (KinaseProfiler)
Outline: as §1

[1] = target: T9, PI3 Kinase (p110a(H1047R)/p85a)(h) (Homo sapiens, UniProt P42336, H1047R); settings: read-out: Inhibition(%) @ 1 µM RK-019
T9 construct: purchased Eurofins Discovery Services (KinaseProfiler)
Outline: as §1

PAK3(h) = target: T10, PAK3(h) (Homo sapiens, UniProt O75914); settings: read-out: Inhibition(%) @ 1 µM RK-019
T10 construct: purchased Eurofins Discovery Services (KinaseProfiler)
Outline: as §1

mTOR/FKBP12(h) = target: T11, mTOR/FKBP12(h) (Homo sapiens, UniProt P42345); settings: read-out: Inhibition(%) @ 1 µM RK-019
T11 construct: purchased Eurofins Discovery Services (KinaseProfiler)
T11 sequence (P42345 1362-2549 limits assumed): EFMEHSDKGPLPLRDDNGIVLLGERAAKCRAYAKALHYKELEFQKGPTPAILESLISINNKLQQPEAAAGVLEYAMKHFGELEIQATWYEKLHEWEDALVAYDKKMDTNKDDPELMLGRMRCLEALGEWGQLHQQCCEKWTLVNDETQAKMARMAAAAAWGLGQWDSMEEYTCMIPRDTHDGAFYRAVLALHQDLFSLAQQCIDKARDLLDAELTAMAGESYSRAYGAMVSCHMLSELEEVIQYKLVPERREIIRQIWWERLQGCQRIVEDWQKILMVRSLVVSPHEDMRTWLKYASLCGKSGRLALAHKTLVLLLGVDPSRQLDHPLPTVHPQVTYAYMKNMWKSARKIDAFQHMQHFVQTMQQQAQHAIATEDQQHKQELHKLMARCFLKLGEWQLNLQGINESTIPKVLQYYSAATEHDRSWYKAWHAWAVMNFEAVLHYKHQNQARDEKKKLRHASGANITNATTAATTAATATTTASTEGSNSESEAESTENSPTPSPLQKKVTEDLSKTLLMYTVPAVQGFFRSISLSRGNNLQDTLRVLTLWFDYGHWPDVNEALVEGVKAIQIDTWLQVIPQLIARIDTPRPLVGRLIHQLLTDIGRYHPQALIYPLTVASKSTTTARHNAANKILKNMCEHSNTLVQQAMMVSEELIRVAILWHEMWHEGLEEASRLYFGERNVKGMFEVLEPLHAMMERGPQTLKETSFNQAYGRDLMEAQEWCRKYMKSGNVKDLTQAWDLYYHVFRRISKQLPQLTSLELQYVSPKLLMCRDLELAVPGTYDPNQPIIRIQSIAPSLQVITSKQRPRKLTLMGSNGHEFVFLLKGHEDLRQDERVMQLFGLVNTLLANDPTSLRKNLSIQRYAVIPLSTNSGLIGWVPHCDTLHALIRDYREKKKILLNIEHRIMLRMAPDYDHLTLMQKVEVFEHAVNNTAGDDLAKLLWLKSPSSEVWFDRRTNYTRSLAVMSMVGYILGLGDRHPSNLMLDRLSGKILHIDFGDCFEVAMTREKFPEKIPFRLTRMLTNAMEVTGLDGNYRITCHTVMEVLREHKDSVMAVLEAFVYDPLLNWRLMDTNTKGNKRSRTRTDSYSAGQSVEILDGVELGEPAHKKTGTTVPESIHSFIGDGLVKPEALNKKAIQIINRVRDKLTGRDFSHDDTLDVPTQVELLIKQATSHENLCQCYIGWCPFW
Outline: as §1

Lyn(h) = target: T12, Lyn(h) (Homo sapiens, UniProt P07948)
T12 construct: purchased Eurofins Discovery Services (KinaseProfiler)
T12 sequence (P07948 whole entry): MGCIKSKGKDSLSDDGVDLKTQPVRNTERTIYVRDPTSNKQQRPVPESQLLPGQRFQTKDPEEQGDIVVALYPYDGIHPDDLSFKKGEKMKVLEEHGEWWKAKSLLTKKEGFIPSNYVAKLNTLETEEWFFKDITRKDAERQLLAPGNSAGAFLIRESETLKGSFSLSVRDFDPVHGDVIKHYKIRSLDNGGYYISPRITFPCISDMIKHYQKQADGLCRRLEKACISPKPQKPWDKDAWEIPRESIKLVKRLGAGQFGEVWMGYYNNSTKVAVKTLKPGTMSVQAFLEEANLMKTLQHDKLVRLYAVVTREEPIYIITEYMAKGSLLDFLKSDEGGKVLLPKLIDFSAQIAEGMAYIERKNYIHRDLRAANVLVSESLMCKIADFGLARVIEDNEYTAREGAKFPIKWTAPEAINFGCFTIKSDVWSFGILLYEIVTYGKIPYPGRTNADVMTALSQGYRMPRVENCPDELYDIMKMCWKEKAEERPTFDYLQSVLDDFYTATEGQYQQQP
Outline: as §1

Txk(h) = target: T13, Txk(h) (Homo sapiens, UniProt P42681); settings: read-out: Inhibition(%) @ 1 µM RK-019
T13 construct: purchased Eurofins Discovery Services (KinaseProfiler)
Outline: as §1

Blk(h) = target: T14, Blk(h) (Homo sapiens, UniProt P51451); settings: read-out: Inhibition(%) @ 1 µM RK-019
T14 construct: purchased Eurofins Discovery Services (KinaseProfiler)
Outline: as §1

PhKγ1(h) = target: T15, PhKγ1(h) (Homo sapiens, UniProt Q16816); settings: read-out: Inhibition(%) @ 1 µM RK-019
T15 construct: purchased Eurofins Discovery Services (KinaseProfiler)
Outline: as §1

MKK3(h) = target: T16, MKK3(h) (Homo sapiens, UniProt P46734); settings: read-out: Inhibition(%) @ 1 µM RK-019
T16 construct: purchased Eurofins Discovery Services (KinaseProfiler)
Outline: as §1

FAK(h) = target: T17, FAK(h) (Homo sapiens, UniProt Q05397); settings: read-out: Inhibition(%) @ 1 µM RK-019
T17 construct: purchased Eurofins Discovery Services (KinaseProfiler)
Outline: as §1

LKB1(h) = target: T18, LKB1(h) (Homo sapiens, UniProt Q15831); settings: read-out: Inhibition(%) @ 1 µM RK-019
T18 construct: purchased Eurofins Discovery Services (KinaseProfiler)
Outline: as §1

CaMKIIγ(h) = target: T19, CaMKIIγ(h) (Homo sapiens, UniProt Q13555); settings: read-out: Inhibition(%) @ 1 µM RK-019
T19 construct: purchased Eurofins Discovery Services (KinaseProfiler)
Outline: as §1

WNK2(h) = target: T20, WNK2(h) (Homo sapiens, UniProt Q9Y3S1); settings: read-out: Inhibition(%) @ 1 µM RK-019
T20 construct: purchased Eurofins Discovery Services (KinaseProfiler)
Outline: as §1

NEK11(h) = target: T21, NEK11(h) (Homo sapiens, UniProt Q8NG66); settings: read-out: Inhibition(%) @ 1 µM RK-019
T21 construct: purchased Eurofins Discovery Services (KinaseProfiler)
Outline: as §1

cKit(D816V)(h) = target: T22, cKit(D816V)(h) (Homo sapiens, UniProt P10721, D816V); settings: read-out: Inhibition(%) @ 1 µM RK-019
T22 construct: purchased Eurofins Discovery Services (KinaseProfiler)
T22 sequence (P10721 26-976 D816V): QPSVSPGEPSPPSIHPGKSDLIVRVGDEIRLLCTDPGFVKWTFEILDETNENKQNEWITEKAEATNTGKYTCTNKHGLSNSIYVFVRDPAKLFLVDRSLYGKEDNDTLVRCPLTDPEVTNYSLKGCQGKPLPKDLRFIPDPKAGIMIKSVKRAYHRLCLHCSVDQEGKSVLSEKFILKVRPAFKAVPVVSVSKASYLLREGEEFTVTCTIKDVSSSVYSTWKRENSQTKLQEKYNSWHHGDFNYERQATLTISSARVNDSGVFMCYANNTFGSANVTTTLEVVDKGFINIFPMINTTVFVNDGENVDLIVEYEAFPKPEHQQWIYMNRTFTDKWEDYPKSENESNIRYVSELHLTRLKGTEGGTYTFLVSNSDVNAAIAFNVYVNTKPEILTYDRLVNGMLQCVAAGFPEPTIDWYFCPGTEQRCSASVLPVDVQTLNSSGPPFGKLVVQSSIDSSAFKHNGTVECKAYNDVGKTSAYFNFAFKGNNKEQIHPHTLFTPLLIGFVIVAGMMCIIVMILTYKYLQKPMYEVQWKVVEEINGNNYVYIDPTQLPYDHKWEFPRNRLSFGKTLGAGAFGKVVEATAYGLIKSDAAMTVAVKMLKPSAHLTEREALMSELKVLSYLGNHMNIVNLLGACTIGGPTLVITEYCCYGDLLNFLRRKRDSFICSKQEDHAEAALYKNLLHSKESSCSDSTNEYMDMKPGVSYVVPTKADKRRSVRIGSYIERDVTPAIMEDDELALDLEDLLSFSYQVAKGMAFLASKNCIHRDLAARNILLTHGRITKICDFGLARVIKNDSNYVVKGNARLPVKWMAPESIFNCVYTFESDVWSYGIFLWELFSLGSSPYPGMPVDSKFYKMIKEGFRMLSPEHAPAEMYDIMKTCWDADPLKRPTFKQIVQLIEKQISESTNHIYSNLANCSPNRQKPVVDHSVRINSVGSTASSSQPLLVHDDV
Outline: as §1

Fes(h) = target: T23, Fes(h) (Homo sapiens, UniProt P07332); settings: read-out: Inhibition(%) @ 1 µM RK-019
T23 construct: purchased Eurofins Discovery Services (KinaseProfiler)
T23 sequence (P07332 whole entry): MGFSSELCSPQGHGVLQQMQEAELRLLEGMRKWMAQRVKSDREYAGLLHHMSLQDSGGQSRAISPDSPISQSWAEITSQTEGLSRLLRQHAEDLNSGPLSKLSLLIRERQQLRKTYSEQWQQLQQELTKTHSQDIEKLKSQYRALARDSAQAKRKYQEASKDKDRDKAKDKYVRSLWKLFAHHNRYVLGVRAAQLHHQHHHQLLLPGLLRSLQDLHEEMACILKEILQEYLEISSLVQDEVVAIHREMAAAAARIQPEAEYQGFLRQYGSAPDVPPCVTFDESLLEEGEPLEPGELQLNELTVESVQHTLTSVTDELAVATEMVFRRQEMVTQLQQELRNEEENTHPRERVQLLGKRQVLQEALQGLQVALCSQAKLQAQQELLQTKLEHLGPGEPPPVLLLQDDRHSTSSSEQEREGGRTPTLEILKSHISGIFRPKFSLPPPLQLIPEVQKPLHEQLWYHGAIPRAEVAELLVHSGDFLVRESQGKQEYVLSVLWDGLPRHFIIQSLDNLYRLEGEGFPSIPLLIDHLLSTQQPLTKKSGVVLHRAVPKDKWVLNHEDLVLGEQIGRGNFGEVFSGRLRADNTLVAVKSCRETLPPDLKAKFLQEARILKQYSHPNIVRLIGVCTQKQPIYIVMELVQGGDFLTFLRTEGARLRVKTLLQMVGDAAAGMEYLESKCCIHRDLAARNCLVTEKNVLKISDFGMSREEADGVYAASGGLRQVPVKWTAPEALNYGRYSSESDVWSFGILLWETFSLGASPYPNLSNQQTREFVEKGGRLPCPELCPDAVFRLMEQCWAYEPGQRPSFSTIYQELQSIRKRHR
Outline: as §1

PKCη(h) = target: T24, PKCη(h) (Homo sapiens, UniProt P24723); settings: read-out: Inhibition(%) @ 1 µM RK-019
T24 construct: purchased Eurofins Discovery Services (KinaseProfiler)
Outline: as §1

TLK1(h) = target: T25, TLK1(h) (Homo sapiens, UniProt Q9UKI8); settings: read-out: Inhibition(%) @ 1 µM RK-019
T25 construct: purchased Eurofins Discovery Services (KinaseProfiler)
Outline: as §1

PRKG2(h) = target: T26, PRKG2(h) (Homo sapiens, UniProt Q13237); settings: read-out: Inhibition(%) @ 1 µM RK-019
T26 construct: purchased Eurofins Discovery Services (KinaseProfiler)
Outline: as §1

Abl(m) = target: T27, Abl(m) (Mus musculus, UniProt P00520); settings: read-out: Inhibition(%) @ 1 µM RK-019
T27 construct: purchased Eurofins Discovery Services (KinaseProfiler)

TSSK4(h) = target: T28, TSSK4(h) (Homo sapiens, UniProt Q6SA08); settings: read-out: Inhibition(%) @ 1 µM RK-019
T28 construct: purchased Eurofins Discovery Services (KinaseProfiler)
Outline: as §1

p70S6K(h) = target: T29, p70S6K(h) (Homo sapiens, UniProt P23443); settings: read-out: Inhibition(%) @ 1 µM RK-019
T29 construct: purchased Eurofins Discovery Services (KinaseProfiler)
Outline: as §1

cKit(D816H)(h) = target: T30, cKit(D816H)(h) (Homo sapiens, UniProt P10721, D816H); settings: read-out: Inhibition(%) @ 1 µM RK-019
T30 construct: purchased Eurofins Discovery Services (KinaseProfiler)
T30 sequence (P10721 26-976 D816H): as the sequence (P10721 26-976 D816V) above, with V791H counted along it
Outline: as §1

Hck(h) activated = target: T31, Hck(h) activated (Homo sapiens, UniProt P08631); settings: read-out: Inhibition(%) @ 1 µM RK-019
T31 construct: purchased Eurofins Discovery Services (KinaseProfiler)
Outline: as §1

IKKβ(h) = target: T32, IKKβ(h) (Homo sapiens, UniProt O14920); settings: read-out: Inhibition(%) @ 1 µM RK-019
T32 construct: purchased Eurofins Discovery Services (KinaseProfiler)
Outline: as §1

MARK1(h) = target: T33, MARK1(h) (Homo sapiens, UniProt Q9P0L2); settings: read-out: Inhibition(%) @ 1 µM RK-019
T33 construct: purchased Eurofins Discovery Services (KinaseProfiler)
Outline: as §1

PKCε(h) = target: T34, PKCε(h) (Homo sapiens, UniProt Q02156); settings: read-out: Inhibition(%) @ 1 µM RK-019
T34 construct: purchased Eurofins Discovery Services (KinaseProfiler)
Outline: as §1

Ret(V804M)(h) = target: T35, Ret(V804M)(h) (Homo sapiens, UniProt P07949, V804M); settings: read-out: Inhibition(%) @ 1 µM RK-019
T35 construct: purchased Eurofins Discovery Services (KinaseProfiler)
Outline: as §1

MOK(h) = target: T36, MOK(h) (Homo sapiens, UniProt Q9UQ07); settings: read-out: Inhibition(%) @ 1 µM RK-019
T36 construct: purchased Eurofins Discovery Services (KinaseProfiler)
Outline: as §1

T1 sequence (Q00535 whole entry): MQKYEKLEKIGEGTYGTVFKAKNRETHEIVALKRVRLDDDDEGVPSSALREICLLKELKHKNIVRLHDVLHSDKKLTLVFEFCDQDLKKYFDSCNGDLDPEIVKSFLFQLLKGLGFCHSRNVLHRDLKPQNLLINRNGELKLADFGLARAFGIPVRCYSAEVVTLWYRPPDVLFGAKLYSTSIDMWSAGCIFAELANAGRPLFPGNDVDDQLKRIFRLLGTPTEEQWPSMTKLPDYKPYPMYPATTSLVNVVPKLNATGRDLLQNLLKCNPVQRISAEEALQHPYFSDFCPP
T1 sequence (Q15078 whole entry partner): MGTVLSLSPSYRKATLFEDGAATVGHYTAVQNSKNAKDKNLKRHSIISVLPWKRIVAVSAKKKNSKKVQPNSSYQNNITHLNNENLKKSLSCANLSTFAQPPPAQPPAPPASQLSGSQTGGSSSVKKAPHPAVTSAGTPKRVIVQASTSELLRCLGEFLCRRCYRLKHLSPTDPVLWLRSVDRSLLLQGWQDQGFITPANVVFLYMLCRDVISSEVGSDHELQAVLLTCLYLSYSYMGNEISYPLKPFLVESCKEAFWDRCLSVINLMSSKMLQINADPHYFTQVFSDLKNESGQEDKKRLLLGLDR

Work on `COc1cc(OC)cc(N(CCN[C@H](C)CO)c2ccc3ncc(-c4cnn(C)c4)c(=O)n3c2)c1` [RK-019, (R)-7-((3,5-dimethoxyphenyl) (2-((1-hydroxypropan-2-yl)amino)ethyl)amino)-3-(1-methyl-1H-pyrazol-4-yl)-4H-pyrido [1,2-a]pyrimidin-4-one] yielded an activity at 1 µM (CDK5/p35(h)) of 106%, an activity at 1 µM (ZAP-70(h)) of 119% and an activity at 1 µM (EphB2(h)) of 96%. The activity at 1 µM (Lyn(m)) was 23%, the activity at 1 µM (CDK13/cyclinK(h)) was 109% and the activity at 1 µM (Rsk4(h)) was 146%. It also gave an activity at 1 µM (SGK2(h)) of 79%, an activity at 1 µM (CDK12/cyclinK(h)) of 109% and an activity at 1 µM [1] of 100%. For the same compound, the activity at 1 µM (PAK3(h)) was 97%, the activity at 1 µM (mTOR/FKBP12(h)) was 92% and the inhibition at 1 µM (Lyn(h); LYN, 1 µM, read-out: inhibition (hit in panel)) was > 90%. For the same compound, the activity at 1 µM (Lyn(h); Lyn(h), read-out: Inhibition(%) @ 1 µM RK-019) was 6%, the activity at 1 µM (Txk(h)) was 106% and the activity at 1 µM (Blk(h)) was 70%. The activity at 1 µM (PhKγ1(h)) was 93%, the activity at 1 µM (MKK3(h)) was 96% and the activity at 1 µM (FAK(h)) was 105%. For the same compound, the activity at 1 µM (LKB1(h)) was 94%, the activity at 1 µM (CaMKIIγ(h)) was 106% and the activity at 1 µM (WNK2(h)) was 103%. The activity at 1 µM (NEK11(h)) was 118%, the activity at 1 µM (cKit(D816V)(h)) was 93% and the activity at 1 µM (Fes(h)) was 106%. The activity at 1 µM (PKCη(h)) was 108%, the activity at 1 µM (TLK1(h)) was 98% and the activity at 1 µM (PRKG2(h)) was 100%. For the same compound, the activity at 1 µM (Abl(m)) was 17%, the activity at 1 µM (TSSK4(h)) was 106% and the activity at 1 µM (p70S6K(h)) was 119%. For the same compound, the activity at 1 µM (cKit(D816H)(h)) was 58%, the activity at 1 µM (Hck(h) activated) was 60% and the activity at 1 µM (IKKβ(h)) was 90%. The activity at 1 µM (MARK1(h)) was 93%, the activity at 1 µM (PKCε(h)) was 88% and the activity at 1 µM (Ret(V804M)(h)) was 56%. For the same compound, the activity at 1 µM (MOK(h)) was 97%.
